Data: US8501734B2, “Medical intervention in haematological cancers” (Oncotyrol-Center for Personalized Cancer Medicine GmbH …, priority 2008, dated 2013)
Where a name gives a salt, the structure may show the parent alone.

Key:
Akt phosphorylation = Akt phosphorylation by Western blot with phospho-Akt antibody in OPM2 cells; format: cell-based
Experimental: Cells were lysed in lysis-IP-Buffer supplemented with protease inhibitors and sodium orthovanadate. 10 μg of lysate were separated by SDS-PAGE (10% polyacrylamide) and transferred to methanol activated Hypond-P PVDF-membranes (Amersham, Freiburg, Germany) by semi-dry blotting. Membranes were blocked in a 3% bovine serum albumin solution or 5% non fat dry milk solution in phosphate buffered saline (PBS) with 0.1% Tween 20 (PBT). Primary antibodies were applied in blocking solution for 1 h at room temperature or over night at 4° C. Membranes were washed in PBT and incubated with corresponding secondary antibodies in 5% non fat dry milk in PBT for 1 h at room temperature. Cells were washed with PBT, incubated with ECL solution and exposed in a Fluorchem 5500 (Biozym, Oldendorf, Germany).
The efficiency of the inhibition of Akt phosphorylation was monitored by Western blotting with antibodies against phospho-Akt. Antibody for actin served as a loading control (FIG. 7B).

PI 3-K, PDK1, or SGK1 = conditions: cited from earlier work
Akt = conditions: cited from earlier work
OPM2 cells = assay: Annexin V/PI apoptosis assay (FACS), OPM2 cells; format: cell-based; parameters: apoptosis induction: unit not given here; conditions: OPM2 cells; for apoptosis induction, combination: Akt inhibitor + Imiquimod 20 μg/ml; for apoptosis induction, single agent: Imiquimod 20 μg/ml or Akt inhibitor alone
Experimental: (§1) After treatment adherent cells were trypsinized (as described before), and resuspended in corresponding full medium. Suspension cells or trypsinized adherent cells, supernatant and washing solution (1×PBS from washing before trypsinization) were pooled and then spun down (300 g for 3 min) washed in 2 ml and resuspended in 1000 of annexin V binding buffer and mixed with 2 μg/ml annexin V-Allophycocyanin (APC) (BD-Pharmingen, San Diego, Calif., USA) and 50 ng/ml of propidium iodide (PI; Sigma Aldrich). At least 10.000 cells were measured per sample using a Becton Dickinson FACSCalibur flow Cytometer (San Jose, Calif., USA). Percentage of Annexin V negative and PI negative cells were depicted in the figures. For the analysis of the pro-apoptotic activity of Imiquimod® in primary MM cells and non-malignant BMMCs, 5×10^5 cells BMMCs cells were treated with or without 40 μg/ml Imiquimod® for the indicated time periods. Cells were then harvested and washed twice with PBS. Detection of apoptotic cells was performed using the annexin V/PI assay according to manufacturers' instruction. Briefly, BMMCs were stained with a mixture of annexin V/FITC (Alexis Coorp., Laeufelfingen, Switzerland), propidium iodide (Sigma), anti-CD38-PE and anti-CD45-PC5 for 15 min at room temperature and immediately analyzed by flow cytometry. The percentages of viable cells (i.e. cells negative for annexin V/FITC and PI) within the MM (CD38^posCD45^low/absent) and non-MM fraction (CD38^neg/CD45^pos) were determined by flow cytometry.
Cells were cultured as described before and, treated with 40 μg/ml Imiquimod® or Gardiquimod® for 24 h, and apoptosis was assayed by AnnexinV/PI staining and FACS analysis.
(§2) Adherent cells were grown in 24-well plates to confluence and treated with 40 μg/ml Imiquimod® for 24 h. Cells were then trypsinized, suspended in full medium, stained for AnnexinV/PI and apoptosis was measured as described before. Suspension cells (250.000) were treated with 40 μg/ml Imiquimod® for 24 h, stained for Annexin/PI and apoptosis was measured as described above (Annexin V/Propidium Iodide apoptosis Assay).
(§3) OPM-2 and U266 cells (2.5×10^5 in 500 μl) were treated with either Imiquimod® alone (10 μg/500 μl), various inhibitors/drugs alone or with the combination of Imiquimod® and inhibitors for 24 or 48 h. In the controls the solvent of the drug has been added in appropriate amounts. Cells were then AnnexinV/PI stained and apoptosis measured as described before.

[1] = system: Rh (rhabdomyosarcoma) cell lines; conditions: read-out: IC50 growth suppression; cited from earlier work
[2] = cited from earlier work
[3] = system: peripheral blood mononuclear cells (PBMCs); assay: Annexin V/PI apoptosis assay, PBMCs from healthy donors; format: cell-based, human; conditions: PBMCs from healthy donors, 48 h, 5 μM Akti1/2 + 20 μg/ml Imiquimod
Experimental: PBMCs were prepared using separation via Ficoll density gradient centrifugation (Biochrom AG, Berlin, Germany) according to the protocol of the manufacturer.
as §1, §2

[4] = system: PH domain-lacking Akts, PKA, PKC, and SGK; conditions: concentrations as high as 50 μM; cited from earlier work
[5] = system: Raji, Daudi, Ramos, Jurkat, C7H2 cell lines; assay: Annexin V/PI apoptosis assay, non-multiple myeloma suspension cell lines; format: cell-based; conditions: Raji, Ramos, Jurkat, 24 h
Experimental: as §1, §2

[6] = system: multiple myeloma cell lines; assay: Annexin V/PI apoptosis assay, multiple myeloma cell line panel; format: cell-based; conditions: OPM2, LP-1, RPMI, U266, 24 h
Experimental: as §1, §2

[7] = in vivo; cited from earlier work
U266 cells = assay: Annexin V/PI apoptosis assay (FACS), U266 cells; format: cell-based; parameters: apoptosis induction: unit not given here; note: key: 0 for no; + for low; ++: + indicates the range of apoptosis induction; +++: + indicates the range of apoptosis induction; ++++ for very strong apoptosis induction
Experimental: as §1, §2, §3

[8] = 24 h, Imi 20 μg/ml + drug 1 ng/ml
[9] = 24 h, Imi 20 μg/ml + drug 10 ng/ml
[10] = 24 h, Imi 20 μg/ml + drug 50 ng/ml
[11] = 48 h, Imi 20 μg/ml + drug 1 ng/ml
[12] = 48 h, Imi 20 μg/ml + drug 10 ng/ml
[13] = 48 h, Imi 20 μg/ml + drug 50 ng/ml

## CCN(CC)CCCCN1c2ccccc2Oc2ccc(Cl)cc21 [AktX, 10-(4′-(N-diethylamino)butyl)-2-chlorophenoxazine, HCl]
Akt phosphorylation
  phosphorylation of Akt: inhibited the phosphorylation of Akt
PI 3-K, PDK1, or SGK1
  effect on PI 3-K, PDK1, or SGK1: minimal effect
Akt
  complete inhibition of Akt phosphorylation and in vitro kinase activity: < 5 µM
OPM2 cells; 24 h
  apoptosis induction, combination: nearly all cells died
  apoptosis induction, single agent: some apoptosis
[1]
  IC50: 2 to 5 µM
[2]
  solubility: soluble in H2O

## O=c1[nH]c2ccccc2n1C1CCN(Cc2ccc(-c3nc4cc5nc[nH]c5cc4nc3-c3ccccc3)cc2)CC1 [Akti1/2, 1,3-Dihydro-1-(1-((4-(6-phenyl-1H-imidazo[4,5-g]quinoxalin-7-yl)phenyl)methyl)-4-piperidinyl)-2H-benzimidazol-2-one]
Akt phosphorylation
  phosphorylation of Akt: inhibited the phosphorylation of Akt
[3]
  sensitivity of PBMCs (general toxicity of the combination): as sensitive as U266 cells
[4]
  inhibitory effect: does not exhibit any inhibitory effect
OPM2 cells; 24 h
  apoptosis induction, combination: nearly all cells died
  apoptosis induction, single agent: some apoptosis
[5]; Daudi, C7H2, 5 μM Akti1/2 + 20 μg/ml Imiquimod
  apoptosis induction, combination: affected all cell lines to some extent
[5]; C7H2 (exception Daudi), 5 μM alone
  apoptosis induction: only a mild effect
[6]; Akti1/2 5 or 10 μM + Imiquimod 20 μg/ml
  apoptosis induction, combination: super-additive effect
[6]; Imiquimod 20 μg/ml or Akti1/2 5 or 10 μM alone
  apoptosis induction, single agent: some apoptosis
[2]
  solubility: soluble in DMSO

## CCn1c(-c2nonc2N)nc2c(C#CC(C)(C)O)ncc(OC[C@H]3CCCNC3)c21 [GSK690693]
[7]
  reason for withdrawal and termination of clinical phase I studies: hyperglycaemia

## CC(C)C[C@H](NC(=O)[C@H](Cc1ccccc1)NC(=O)c1cnccn1)B(O)O [Velcade]
U266 cells; [8]
  apoptosis induction: +
U266 cells; [9]
  apoptosis induction: +
U266 cells; [10]
  apoptosis induction: ++
U266 cells; 24 h, drug alone 1 ng/ml
  apoptosis induction: 0
U266 cells; 24 h, drug alone 10 ng/ml
  apoptosis induction: ++
U266 cells; 24 h, drug alone 50 ng/ml
  apoptosis induction: ++
U266 cells; [11]
  apoptosis induction: +
U266 cells; [12]
  apoptosis induction: ++
U266 cells; [13]
  apoptosis induction: ++
U266 cells; 48 h, drug alone 1 ng/ml
  apoptosis induction: 0
U266 cells; 48 h, drug alone 10 ng/ml
  apoptosis induction: +++
U266 cells; 48 h, drug alone 50 ng/ml
  apoptosis induction: +++
OPM2 cells; [8]
  apoptosis induction: +
OPM2 cells; [9]
  apoptosis induction: +
OPM2 cells; [10]
  apoptosis induction: +
OPM2 cells; 24 h, drug alone 1 ng/ml
  apoptosis induction: 0
OPM2 cells; 24 h, drug alone 10 ng/ml
  apoptosis induction: +
OPM2 cells; 24 h, drug alone 50 ng/ml
  apoptosis induction: +
OPM2 cells; [11]
  apoptosis induction: ++
OPM2 cells; [12]
  apoptosis induction: ++
OPM2 cells; [13]
  apoptosis induction: +++
OPM2 cells; 48 h, drug alone 1 ng/ml
  apoptosis induction: 0
OPM2 cells; 48 h, drug alone 10 ng/ml
  apoptosis induction: +++
OPM2 cells; 48 h, drug alone 50 ng/ml
  apoptosis induction: +++
